Measurements as given in patent US12116365B2, “Heterocyclic compounds and uses thereof” (Opna Bio SA, priority 2015, dated 2024).
Entries after “also recorded” stand apart in the source; their conditions may differ.

Key:
[1] = Toxicity profile, body weight in Ba/F3 splenomegaly model; assay type: in vivo; parameters: Delta Body Weight Loss: unit not given here; details: for observed toxicity (in words): 10 mg/kg over 7 days of dosing; for Delta Body Weight Loss: 10 mg/kg oral QD
From the text: The […] cell line, Ba/F3, depends on the addition of IL-3 for growth in cell culture. However Ba/F3 cells engineered to express a full length oncogene is capable of rendering Ba/F3 cells factor-independent, but become apoptotic when the oncogene or downstream signaling is inhibited by the addition of small molecule inhibitors. When injected into the tail veins of nude mice, the factor-independent Ba/F3 cells home to the spleen and proliferate to cause a marked splenomegaly. The in vivo proliferation of the factor-independent Ba/F3 cells and appearance of splenomegaly are directly dependent on the activity of the Ba/F3 cells and can be blocked by oral administration of compounds that are effective inhibitors of cell growth. Therefore, this animal model can be used to ascertain the effective doses for Ba/F3 cell inhibition, evaluation of both PK/PD effects as well as a readout of toxicity or MTD.
FIG. 2 illustrates the observed toxicity when dosing Compound P-001 and Compound Z at 10 mg/kg to nu/nu mice over a period of 7 days.

IPC298 Xenograft = experiment: IPC298 xenograft model, tumor growth; assay type: in vivo, mice; details: for antitumor activity (in words): 10 mg/kg po QD x16; for Average Tumor Volume (mm^3) / Tumor Size (Day 27, mm^3) / TGI (%): 10 mg/kg po QD; for TGI (%): tumor growth inhibition
Method: Treatment: The treatments started on Day 11 after tumor inoculation when the mean tumor size reached approximately 150 mm^3. Mice were randomized into 10 study groups and each group consisted of 8 mice. The test articles were administrated to the tumor-bearing mice according to predetermined treatment regimen as shown in Table 3.
Tumor measurements and the endpoints: The major endpoint was to see if the tumor growth could be delayed or regressed. Tumor size was measured twice a week in two dimensions using a caliper, and the volume was expressed in mm^3 using the formula: V=0.5a×b^2 where a and b are the long and short diameters of the tumor, respectively. The tumor size was then used for calculation of tumor growth inhibition (TGI, in percent). The TGI value is an indication of antitumor effectiveness: TGI=(1−T/C)×100%. T and C are the means of relative tumor volumes of the treated and control groups, respectively. T and C are calculated using the formula: T=Td/T0×100%, C=Cd/C0×100%, where Td and Cd are tumor volumes of the treated and control animals, respectively, on Day 28 after tumor inoculation; T0 and C0 are tumor volumes of the treated and control animals, respectively, at the start of the treatment

[2] = Rat PK, cassette dosing, IV and PO; assay type: in vivo; details: for Cl (mL/min/Kg) / Vss (L/Kg) / AUC / Cmax / Tmax / half-life: Mean (SE); for AUC / Cmax / Tmax / half-life / bioavailability: plasma
Method: Rat PK data was determined using a cassette dosing format with 5 compounds administered to each of three rats for IV and three rats for PO. The IV dose was 1 mg/kg for each compound in 8.75% solutol, 8.75% ethanol, 12.5% DMSO and 70% water by volume. The PO dose was 2 mg/kg for each compound in 1% methylcellulose in water, 10% DMSO by volume. Plasma IV samples were collected at 15 min, 30 min, 1 hr, 2 hrs, 4 hrs, 8 hrs, and 24 hrs. Plasma PO samples were collected at 30 min, 1 hr, 2 hrs, 4 hrs, 8 hrs, and 24 hrs. Plasma drug concentrations were determined by LC/MS/MS after standard curve calibration for each test article. Dosing solutions were also analyzed for test article and used to calculate the administered dose. The PK parameters were calculated using WinNonLin (v 6.3, Phoenix 64, Pharsight) using a noncompartmental model.
Tables 1 and 2 show comparative data for both intravenous (IV) and peroral (PO) administration in rat for Compound P-001 of this disclosure and a similar structural compound disclosed in the WO 2014/145051, Compound Z. Values are reported as the Mean with the Standard Error (SE) in parentheses.

[3] = Table 2, titled Peroral (PO) Administration in Rat
[4] = 1 mg/kg, Table 1, titled Intravenous (IV) Administration in Rat
[5] = 2 mg/kg, Table 2, titled Peroral (PO) Administration in Rat

With `Cc1noc(C)c1-c1cnc2c(-c3ccc(C(=O)O)cc3)cn(C(c3ccccn3)c3ccccn3)c2c1` [Compound Z, reference compound] the “observed toxicity (in words)” value [1] was “significant toxicity after the 2nd day of dosing”, the “Delta Body Weight Loss” value ([1]; Day 1) was 0 and the “Delta Body Weight Loss” value ([1]; Day 2) was −0.125. The “Delta Body Weight Loss” value ([1]; Day 3) was −0.6, the “Delta Body Weight Loss” value ([1]; Day 5) was −1.125 and the “Delta Body Weight Loss” value ([1]; Day 6) was −2.475. The “Delta Body Weight Loss” value ([1]; Day 7) was −3.75, the “antitumor activity (in words)” value (IPC298 Xenograft) was “moderate antitumor activity” and the “Average Tumor Volume (mm^3)” value (IPC298 Xenograft; Day 0) was 124.0 mm^3. The “Average Tumor Volume (mm^3)” value (IPC298 Xenograft; Day 4) was 119.8 mm^3, the “Average Tumor Volume (mm^3)” value (IPC298 Xenograft; Day 6) was 124.0 mm^3 and the “Average Tumor Volume (mm^3)” value (IPC298 Xenograft; Day 8) was 120.6 mm^3. For the same compound, the “Average Tumor Volume (mm^3)” value (IPC298 Xenograft; Day 11) was 106.8 mm^3, the “Average Tumor Volume (mm^3)” value (IPC298 Xenograft; Day 13) was 141.5 mm^3 and the “Tumor Size (Day 27, mm^3)” value (IPC298 Xenograft) was 141.5 ± 16.3 mm^3. For the same compound, the “TGI (%)” value (IPC298 Xenograft) was 92%, the “Cl (mL/min/Kg)” value [2, 3] was 36 (4) mL/min/Kg and the “Vss (L/Kg)” value [2, 3] was 1.061 (0.109) L/Kg. It also gave an AUC [2, 4] of 0.125 µg·h/mL, a Cmax [2, 4] of 0.08 µg/mL and a Tmax [2, 4] of 30 min. The half-life [2, 4] was 78.6 min, the AUC [2, 5] was 0.125 µg·h/mL and the bioavailability [2, 5] was 17%.

With `Cc1noc(C)c1-c1cnc2c(-c3ccc(C(=O)O)cc3)cn(C(C)(c3ccccn3)c3ccccn3)c2c1` [Compound P-001, 4-(1-(1,1-di(pyridin-2-yl)ethyl)-6-(3,5-dimethylisoxazol-4-yl)-1H-pyrrolo[3,2-b]pyridin-3-yl)benzoic acid] the “observed toxicity (in words)” value [1] was “no toxicity was observed”, the “Delta Body Weight Loss” value ([1]; Day 1) was 0 and the “Delta Body Weight Loss” value ([1]; Day 2) was 0.75. For the same compound, the “Delta Body Weight Loss” value ([1]; Day 3) was 1.375, the “Delta Body Weight Loss” value ([1]; Day 5) was 1.125 and the “Delta Body Weight Loss” value ([1]; Day 6) was 1.825. For the same compound, the “Delta Body Weight Loss” value ([1]; Day 7) was 2.075, the “antitumor activity (in words)” value (IPC298 Xenograft) was “strong antitumor activity; also recorded: strong therapeutic efficacy” and the “Average Tumor Volume (mm^3)” value (IPC298 Xenograft; Day 0) was 124.7 mm^3. The “Average Tumor Volume (mm^3)” value (IPC298 Xenograft; Day 4) was 94.5 mm^3, the “Average Tumor Volume (mm^3)” value (IPC298 Xenograft; Day 6) was 91.5 mm^3 and the “Average Tumor Volume (mm^3)” value (IPC298 Xenograft; Day 8) was 90.0 mm^3. The “Average Tumor Volume (mm^3)” value (IPC298 Xenograft; Day 11) was 96.9 mm^3, the “Average Tumor Volume (mm^3)” value (IPC298 Xenograft; Day 13) was 99.2 mm^3 and the “Tumor Size (Day 27, mm^3)” value (IPC298 Xenograft) was 99.2 ± 13.5 mm^3. For the same compound, the “TGI (%)” value (IPC298 Xenograft) was 112%, the “rat PK compared to Compound Z (in words)” value ([2]; IV and PO) was “dramatic improvement” and the “Cl (mL/min/Kg)” value [2, 3] was 3 (0) mL/min/Kg. For the same compound, the “Vss (L/Kg)” value [2, 3] was 0.469 (0.015) L/Kg, the AUC [2, 4] was 7.67 µg·h/mL and the Cmax [2, 4] was 1.21 µg/mL. The Tmax [2, 4] was 40.2 min, the half-life [2, 4] was 248 min and the AUC [2, 5] was 7.67 µg·h/mL. The bioavailability [2, 5] was 103%.
